Earlier results in patent US4970081A, “Controlled-release, low-dose aspirin formulation and method of treating vascular occlusive disease therewith” (Sterling Drug Inc., priority 1989, dated 1990).

Legend:
[1] = prior art dosage forms
thromboxane B2 (TX) = details: 1 mg every 30 minutes for 10 hours; at 10 hours
[2] = tested on: cyclooxygenase in platelets; details: by acetylating cyclooxygenase in platelets
[3] = tested on: vascular occlusive events; details: oral aspirin, patients
prostacyclin (PC) = details: 1 mg every 30 minutes for 10 hours
[4] = tested on: endothelial cyclooxygenase; details: at the doses given in most clinical trials

Compound	release rate [1] [mg per hour]	decrease in serum TX (thromboxane B2 (TX)) [%]	effect on platelet adhesiveness [2]	protection from vascular occlusive events [3]	urinary PC (prostacyclin (PC))	effect on endothelial cyclooxygenase [4]
Nc1ccc(S(N)(=O)=O)cc1 [Sulfanilamide]	4.5					
CC(=O)Oc1ccccc1C(=O)O [aspirin]		66	significantly decreases platelet adhesiveness	statistically significant protection	unaltered	inhibits endothelial cyclooxygenase
